Broadly, the inhibition is the drop in the measured response relative to a control, in per cent.

Each structure is given as a SMILES string. Results filed as inconclusive are left out. Calls of active or inactive are those of the source.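 The calls were made as follows: active = inhibition of the calcium rise above 50%; inconclusive = blank fluorescence over twice solvent-only controls, so no ratio; inactive = inhibition below 50%.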

This test concerns TALL-104 cells, thapsigargin Ca2+ rise, fura-2 ratio. The experiment in a line: inhibitors of thapsigargin-evoked calcium rise, mechanism study for lytic granule exocytosis inhibitor project, TALL-104 cells, fura-2 fluorescence, CherryPick01 (AID 720670). Conditions: at 30 µM; stronger effect = higher value.
In the case of `CC1(C(=O)OCC(=O)Nc2nc(-c3ccc(F)c(F)c3)cs2)CC1(Cl)Cl` (configuration not stated), the inhibition was 20.1% (inactive). As for `CC1=NOC(=O)/C1=C/c1ccc(-c2ccc(Cl)cc2)o1`, the inhibition was 18.1% (inactive). `COC(=O)c1c(NC(=O)c2ccc(C(=O)c3ccccc3)cc2)sc2c1CC(C)(C)NC2(C)C`: the inhibition was 73.3%. Take `COc1ccc(-c2cc(NC=O)c3ncc(-c4cccc(OC)c4)n3c2)cc1`: the inhibition was 22.8% (inactive). With `CCOc1ccc2nc(C)cc(Nc3cccc([N+](=O)[O-])c3)c2c1` the figure was 77.7%. With `O=C(Cn1sc2ccccc2c1=O)Nc1ccc(F)cc1` the figure was -21.1% (inactive); with `CC(=O)Nc1ccc2sn(-c3ccccc3)c(=O)c2c1`, 12.6% (inactive). The figure for `O=C(Nc1ccc(F)cc1)c1nc(S(=O)(=O)Cc2ccccc2)ncc1Cl` is 75.7%. As for `COc1cc(-c2coc3c(C(=O)NCc4ccc(OC)c(OC)c4)cccc23)ccc1O`, the inhibition was 15.4% (inactive). On to `COc1cccc(-c2cnc3c(NC=O)cc(-c4ccccc4)cn23)c1`, for which the inhibition is 66.5%. With `COc1ccc([N+](=O)[O-])cc1Nc1c2ccccc2nc2ccccc12` the figure was 12.2% (inactive); with `N#Cc1ccc(NC(=O)Nc2ccc(Oc3ccc(NC(=O)Nc4ccc(C#N)cc4)cc3)cc2)cc1`, -1.1% (inactive).

On to `Cc1ccc(Nc2nc(NCc3ccco3)c3ccccc3n2)cc1`, for which the inhibition is -2.3% (inactive). With `Cc1ccc(S(=O)(=O)n2ccc3c(OCCOCCNCc4ccc(F)cc4)cccc32)cc1` the figure was 39.2% (inactive); with `O=c1c2ccccc2sn1-c1ccccc1F`, 18.8% (inactive).

As to `COc1ccccc1CNc1nc(NCc2ccc(C(C)C)cc2)c2sccc2n1`, the inhibition was 4.1% (inactive). On to `COc1cccc(-c2cnc3c(NC(C)=O)cc(-c4ccsc4)cn23)c1`, for which the inhibition is 39.6% (inactive). For the compound `Cc1ccc(-n2nnc3c(=O)oc4ccccc4c32)cc1`, the inhibition is 116%.

Turning to `CCCCC[C@@H](C)N1C[C@@H](COCc2ccccc2)Oc2cc(N3CC[C@H](N(C)C)C3)ccc2S1(=O)=O`, the inhibition is 37.6% (inactive). The figure for `COC(=O)c1c(NC(=O)c2nc3ccccc3s2)sc2c1CC(C)(C)NC2(C)C` is 41.7% (inactive).

For `N#Cc1c(Nc2ccccc2Cl)s[nH]c1=O`, the inhibition was 9.3% (inactive). With `CCc1nc2ccc(C(=O)NC3CCN(Cc4ccccc4)CC3)cn2c1N(C)Cc1cc2ccccc2s1` the figure was 3.6% (inactive); with `CCOC(=O)c1c(NC(=O)COc2ccccc2OCC)sc2c1CC(C)(C)NC2(C)C`, 32.1% (inactive).

Consider `CN(C)CCCNC(=S)NCC(c1ccc(Cl)cc1Cl)c1c[nH]c2ccccc12` (configuration not stated), for which the inhibition was 10.4% (inactive).

As for `CCc1ccc(/C=C2/Sc3ccccc3N(CC(=O)NCCCN3CCOCC3)C2=O)cc1`, the inhibition was 3.8% (inactive). With `CC1=C(C)CS(=O)N(S(=O)(=O)c2ccc(Cl)cc2)C1` (configuration not stated) the figure was 11.4% (inactive); with `CC1COCC(C)N1C1=C(Cl)C(=O)c2ccccc2C1=O` (configuration not stated), 27% (inactive). With `CCOC(=O)c1c(CSc2ccccc2)n(C)c2cc(Br)c(O)c(CN(C)C)c12` the figure was 70.2%. With `Cc1cc(N2CCN(c3nc(-c4ccc([N+](=O)[O-])cc4)cs3)CC2)c2ccccc2n1` the figure was -35.4% (inactive); with `COc1ccc(-n2sc3ccccc3c2=O)cc1`, 19.8% (inactive).

Turning to `O=C(Cn1sc2ccccc2c1=O)NC12CC3CC(CC(C3)C1)C2`, the inhibition was 3% (inactive). Regarding `CN(c1ccccc1)S(=O)(=O)c1cccc(C(=O)NCCc2c[nH]c3ccccc23)c1`, the inhibition was 78.8%. With `CCCNC(=O)Cn1sc2nc(C)cc(C)c2c1=O` the figure was 19.7% (inactive); with `O=C1C=CC(=O)N1N(c1ccccc1)c1ccccc1`, 11.2% (inactive); with `O=C1CC(Sc2nnnn2-c2ccccc2)C(=O)N1c1cccc(Cl)c1` (configuration not stated), 6.9% (inactive). With `Cn1sc(=O)c2cc(S(=O)(=O)NC3CC3)ccc21` the figure was 91.3%.

`CCCCn1c(=N)n(CC(=O)c2ccc(Br)s2)c2ccccc21`: the inhibition is 58.6%. With `CC(C)(c1ccccc1)c1ccc(OCC(O)CNC2CCN(Cc3ccccc3)CC2)cc1` (configuration not stated) the figure was 27.1% (inactive); with `CCOc1cc(CNCCc2ccc(S(N)(=O)=O)cc2)ccc1OCc1ccc(Cl)cc1`, 63.5%. With `COc1cccc(-c2cnc3c(NC(C)=O)cc(-c4ccccc4OC)cn23)c1` the figure was 81.3%; with `O=C1Nc2ccc(Br)cc2/C1=C/C(=O)c1ccccc1`, 15.1% (inactive).

With `CCc1ccc2nc(N(CCCN(C)C)C(=O)c3ccc(S(=O)(=O)N4CCc5ccccc5C4)cc3)sc2c1`, the inhibition was 50.9%. With `COc1ccc(-c2cc(NC=O)c3ncc(-c4ccccc4)n3c2)cc1OC` the figure was 31.5% (inactive). The figure for `COc1ccccc1CNc1nc(NCc2ccc3occc3c2)c2sccc2n1` is 8.8% (inactive); for `COC(=O)[C@]12CCCCC=C1N(Cc1cccc3ccccc13)C(=O)[C@H](CC(=O)NCc1ccc(OC)c(OC)c1)C2` it is 6.3% (inactive).

Take `O=c1c2ccc(F)cc2sn1-c1ccccc1`: the inhibition was 7.1% (inactive). With `O=C(OCc1ccccc1)N(CCCCN(CCCNCc1ccccc1)C(=O)OCc1ccccc1)CCCNCc1ccccc1` the figure was 57.3%.

Consider `CCCS(=O)(=O)Nc1ccc(Nc2c3ccccc3nc3ccccc23)c(OC)c1`, for which the inhibition was 67.1%. With `COc1ccc(N2C(=O)CC(Sc3nnc(-c4ccccc4)o3)C2=O)cc1` (configuration not stated) the figure was -14.7% (inactive); with `CCOC(=O)c1cc(-c2csc(Nc3c(C)cc(C)cc3C)n2)on1`, 79.7%; with `CC(=O)Nc1ccc2c(=O)n(-c3ccccc3)sc2c1`, 16.3% (inactive).

Turning to `CCCCC[C@@H](C)N1C[C@@H](COCc2ccccc2)Oc2cc(N3CC[C@@H](N(C)C)C3)ccc2S1(=O)=O`, the inhibition was 21.3% (inactive).

For the compound `COc1cccc(NC(=O)Nc2nc(-c3ccc(OC)c(OC)c3)cs2)c1`, the inhibition is 90.9%. With `CCC(=C(c1ccc(OC)cc1)c1ccc(OC)cc1)c1cn(CC(O)CN2CCN(C)CC2)c2ccccc12` (configuration not stated) the figure was 41.5% (inactive); with `c1ccc(CNc2nc(NCC3CC3)nc3cc(-c4ccccc4)sc23)cc1`, 70%; with `OC(CNCC(c1ccc(Cl)cc1Cl)c1c[nH]c2ccccc12)c1ccccc1` (configuration not stated), 34.1% (inactive). With `O=c1c2ccccc2sn1-c1ccccc1` the figure was -10.6% (inactive); with `CCCCC[C@@H](C)N1C[C@H](COCc2ccccc2)Oc2cc(N3CC[C@@H](N(C)C)C3)ccc2S1(=O)=O`, 37.4% (inactive); with `CCOC(=O)c1nnc(-c2ccccc2)nc1Sc1ccccc1Cl`, 21.2% (inactive). With `O=CNc1cc(-c2ccsc2)cn2c(-c3ccccc3)cnc12`, the inhibition was 11% (inactive). With `O=S(=O)(c1ccccc1)c1nnn2c1nc(NC1CCN(Cc3ccccc3)CC1)c1cc(Cl)ccc12` the figure was 79.3%; with `CCOc1ccc2nc(N(CCCN(C)C)C(=O)c3ccc(S(=O)(=O)N4CCc5ccccc5C4)cc3)sc2c1`, 69.4%.
